In patent US10941158B2, “Pyrazole ACC inhibitors and uses thereof” (Gilead Apollo, LLC, priority 2015, dated 2021):
In brackets after ≈: the same amount, converted by molar mass. Like-named read-outs stand apart in the source and are kept apart here.

Key:
[1] = molecular target: human (hACC2) ACC2 (Homo sapiens, UniProt O00763); assay: In vitro Acetyl-CoA Carboxylase (ACC) inhibition assay (ADP-Glo), hACC2; type: biochemical
Procedure: The detailed procedure is as follows. […] 10 μL ADP glo reagent was added. […] 20 μL kinase detection reagent was added.
“NA” stands for “not assayed.”

[2] = system: C. albicans ATCC 90028; assay: Anti-Fungal (Candida) Activity Assay, broth microtiter MIC; type: cell-based; conditions: ATCC90028, 48 h, read-out: MIC C. albicans ATCC 90028
How it was run: (§1)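 Test compounds were dissolved in DMSO at 1 mg/mL (stock) and challenged against direct colony suspensions in RPMI 1640 with MOPS under CLSI M27-A3 broth microdilution. Growth was judged by eye relative to drug-free control after 48 h.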

[3] = system: C. krusei ATCC 6258; assay: as above; type: cell-based; conditions: Pichia kudriavzevii, ATCC6258, 48 h, read-out: MIC C. krusei ATCC 6258
How it was run: as §1

[4] = system: C. parapsilosis ATCC 22019; assay: as above; type: cell-based; conditions: Lodderomyces parapsilosis, ATCC22019, 48 h, read-out: MIC C. parapsilosis ATCC 22019
How it was run: as §1

[5] = system: Botrtyis cinerea (Bc); assay: Growth inhibition assay of fungal pathogens; type: cell-based; conditions: 48 h, read-out: Concentration at 90% Inhibition Bc
How it was run: (§2)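 Liquid-culture assay in which test compounds are applied at three final concentrations (50, 10, 2 ppm or 2, 0.4, 0.08 ppm). Inoculum levels follow 48 h growth curves for each fungus. Growth is monitored by OD600 and by eye, and the 48 h values give % inhibition against DMSO.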

[6] = system: Collectotrichum graminicola (Cg); assay: Growth inhibition assay of fungal pathogens; type: cell-based; conditions: 48 h, read-out: Concentration at 90% Inhibition Cg
How it was run: (§3)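 Percent growth inhibition was derived from 48 h OD600 and visual scores relative to 2% DMSO, with blank background subtraction. Fungi were grown from spores in 17% V8 liquid medium, R. solani from 1.5 mm plugs in ¼ PDB, with compound at final 50/10/2 or 2/0.4/0.08 ppm.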

[7] = system: Diplodia maydis (Dm); assay: Growth inhibition assay of fungal pathogens; type: cell-based; conditions: Stenocarpella maydis, 48 h, read-out: Concentration at 90% Inhibition Dm
How it was run: as §2

[8] = system: Fusarium moniliforme (Fm); assay: Growth inhibition assay of fungal pathogens; type: cell-based; conditions: for IC90: Fusarium verticillioides, 48 h, read-out: Concentration at 90% Inhibition Fm; for Concentration at 90% Inhibition Fm: Table 4b, 48 hours
How it was run: as §2

[9] = system: Fusarium virguliforme (Fv); assay: Growth inhibition assay of fungal pathogens; type: cell-based; conditions: 48 h
How it was run: as §3

[10] = system: Phytophthora capsici (Pc); assay: Growth inhibition assay of fungal pathogens; type: cell-based; conditions: Phytophthora capsici, 48 h, read-out: Concentration at 90% Inhibition Pc
How it was run: as §3

[11] = system: Rhizoctonia solani (Rs); assay: Growth inhibition assay of fungal pathogens; type: cell-based; conditions: 48 h, read-out: Concentration at 90% Inhibition Rs
How it was run: as §2

[12] = system: Septoria tritici (St); assay: Growth inhibition assay of fungal pathogens; type: cell-based; conditions: Zymoseptoria tritici, 48 h, read-out: Concentration at 90% Inhibition St
How it was run: as §3

[13] = read-out: Concentration at 90% Inhibition Fv, Table 4a, 48 hours
[14] = read-out: Concentration at 90% Inhibition Fv, Table 4b, 48 hours

Sequence of human (hACC2) ACC2 (O00763 whole entry): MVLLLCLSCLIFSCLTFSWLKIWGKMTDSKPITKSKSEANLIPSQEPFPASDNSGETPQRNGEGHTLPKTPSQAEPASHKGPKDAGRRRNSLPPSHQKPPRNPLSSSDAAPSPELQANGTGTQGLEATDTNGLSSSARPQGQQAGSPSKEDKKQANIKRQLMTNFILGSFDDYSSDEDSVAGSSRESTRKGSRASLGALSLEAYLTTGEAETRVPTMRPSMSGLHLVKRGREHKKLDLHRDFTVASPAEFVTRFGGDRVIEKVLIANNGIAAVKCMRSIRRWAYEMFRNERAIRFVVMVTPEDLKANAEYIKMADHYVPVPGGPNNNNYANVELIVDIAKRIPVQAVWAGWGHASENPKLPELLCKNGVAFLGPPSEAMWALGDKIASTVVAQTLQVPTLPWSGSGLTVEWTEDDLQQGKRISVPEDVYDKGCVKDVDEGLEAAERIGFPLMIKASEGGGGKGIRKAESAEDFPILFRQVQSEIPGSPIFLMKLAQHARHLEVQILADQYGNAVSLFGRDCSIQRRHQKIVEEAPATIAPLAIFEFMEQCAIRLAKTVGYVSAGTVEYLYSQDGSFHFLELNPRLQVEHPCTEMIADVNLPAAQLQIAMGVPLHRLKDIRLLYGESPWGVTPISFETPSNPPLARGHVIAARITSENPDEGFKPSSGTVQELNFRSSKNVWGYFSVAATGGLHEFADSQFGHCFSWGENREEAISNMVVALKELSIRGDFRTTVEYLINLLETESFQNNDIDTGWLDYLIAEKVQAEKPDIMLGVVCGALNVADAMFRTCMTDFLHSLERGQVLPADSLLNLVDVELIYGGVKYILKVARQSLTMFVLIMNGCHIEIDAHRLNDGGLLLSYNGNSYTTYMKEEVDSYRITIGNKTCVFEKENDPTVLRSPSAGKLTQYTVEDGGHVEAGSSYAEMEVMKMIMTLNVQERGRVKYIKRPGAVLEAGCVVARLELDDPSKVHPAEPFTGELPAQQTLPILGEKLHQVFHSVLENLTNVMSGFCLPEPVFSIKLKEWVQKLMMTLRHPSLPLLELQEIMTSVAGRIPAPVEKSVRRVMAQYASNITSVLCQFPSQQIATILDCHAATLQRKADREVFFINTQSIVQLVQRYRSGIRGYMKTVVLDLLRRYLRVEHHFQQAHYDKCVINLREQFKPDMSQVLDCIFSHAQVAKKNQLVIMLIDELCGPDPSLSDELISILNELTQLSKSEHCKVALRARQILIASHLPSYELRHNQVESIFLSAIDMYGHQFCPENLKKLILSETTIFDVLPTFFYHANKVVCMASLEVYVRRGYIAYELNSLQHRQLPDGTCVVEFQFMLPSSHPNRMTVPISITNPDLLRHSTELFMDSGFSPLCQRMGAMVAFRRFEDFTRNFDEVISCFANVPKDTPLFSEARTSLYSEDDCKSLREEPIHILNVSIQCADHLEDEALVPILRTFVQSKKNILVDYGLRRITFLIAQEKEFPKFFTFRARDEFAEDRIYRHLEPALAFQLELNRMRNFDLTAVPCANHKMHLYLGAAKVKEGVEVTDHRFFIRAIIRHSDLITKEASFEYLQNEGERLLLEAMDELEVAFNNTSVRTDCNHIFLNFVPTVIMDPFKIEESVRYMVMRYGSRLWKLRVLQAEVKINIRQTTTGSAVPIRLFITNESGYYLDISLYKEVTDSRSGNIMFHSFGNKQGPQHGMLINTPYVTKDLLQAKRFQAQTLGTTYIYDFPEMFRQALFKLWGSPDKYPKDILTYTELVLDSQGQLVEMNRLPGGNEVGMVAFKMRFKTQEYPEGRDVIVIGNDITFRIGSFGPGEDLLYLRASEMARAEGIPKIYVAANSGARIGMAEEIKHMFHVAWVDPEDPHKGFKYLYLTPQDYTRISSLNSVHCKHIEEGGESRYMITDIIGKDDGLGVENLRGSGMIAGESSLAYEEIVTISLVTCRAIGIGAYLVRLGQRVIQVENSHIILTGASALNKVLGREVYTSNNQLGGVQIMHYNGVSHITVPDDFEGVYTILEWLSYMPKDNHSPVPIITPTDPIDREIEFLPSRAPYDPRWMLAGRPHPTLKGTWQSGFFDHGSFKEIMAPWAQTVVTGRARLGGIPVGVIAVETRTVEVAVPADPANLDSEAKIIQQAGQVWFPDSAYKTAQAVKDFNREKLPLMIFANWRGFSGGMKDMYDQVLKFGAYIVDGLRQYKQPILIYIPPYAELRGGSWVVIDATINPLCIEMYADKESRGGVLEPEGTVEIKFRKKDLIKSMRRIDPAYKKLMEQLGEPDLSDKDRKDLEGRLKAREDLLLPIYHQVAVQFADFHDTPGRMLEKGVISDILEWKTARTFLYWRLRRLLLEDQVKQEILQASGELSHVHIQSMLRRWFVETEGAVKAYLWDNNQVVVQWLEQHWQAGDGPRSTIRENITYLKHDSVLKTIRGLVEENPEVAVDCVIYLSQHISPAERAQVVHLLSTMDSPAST

Work on `COc1ccccc1[C@H](Cn1c(=O)n(C(C)(C)C(=O)NC(C)C)c(=O)c2c(C)c(-n3cccn3)sc21)OC(C)C` [Compound I-17, (R)-2-(l-(2-isopropoxy-2-(2-methoxyphenyl)ethyl)-5-methyl-2,4-dioxo-6-(H-pyrazol-1-yl)-1,4-dihydrothieno[2,3-d]pyrimidin-3(2H)-yl)-N-isopropyl-2-methylpropanamide] yielded an IC50 [1] of 3 to 10 nM, an MIC [2] of 0.25 to 1 µg/mL (≈ 0.44 to 1.76 µM) and an MIC [3] of 0.25 to 1 µg/mL (≈ 0.44 to 1.76 µM). For the same compound, the MIC [4] was 0.25 to 1 µg/mL (≈ 0.44 to 1.76 µM), the IC90 ([5]; Table 4a) was 2 µg/mL (≈ 3.52 µM) and the IC90 ([5]; Table 4b) was 2 µg/mL (≈ 3.52 µM). The IC90 ([6]; Table 4a) was > 50 µg/mL, the IC90 ([6]; Table 4b) was 10 µg/mL (≈ 17.6 µM) and the IC90 ([7]; Table 4a) was 2 µg/mL (≈ 3.52 µM). The IC90 ([7]; Table 4b) was 2 µg/mL (≈ 3.52 µM), the IC90 [8] was 0.4 µg/mL (≈ 0.705 µM) and the “Concentration at 90% Inhibition Fm” value [8] was “A (“A” provided a compound concentration of 0.4 ppm at 90% inhibition of fungal pathogens)”. For the same compound, the IC90 [9, 13] was 0.4 µg/mL (≈ 0.705 µM), the IC90 [9, 14] was 0.4 µg/mL (≈ 0.705 µM) and the IC90 ([10]; Table 4a) was > 50 µg/mL. For the same compound, the IC90 ([10]; Table 4b) was > 50 µg/mL, the IC90 ([11]; Table 4a) was > 50 µg/mL and the IC90 ([11]; Table 4b) was > 50 µg/mL. For the same compound, the IC90 ([12]; Table 4a) was > 50 µg/mL and the IC90 ([12]; Table 4b) was > 50 µg/mL.
With `COc1ccccc1[C@H](Cn1c(=O)n(C(C)(C)C(=O)N2CCCCC2)c(=O)c2c(C)c(-n3cccn3)sc21)OC(C)C` [Compound I-19, (R)-1-(2-isopropoxy-2-(2-methoxyphenyl)ethyl)-5-methyl-3-(2-methyl-1-oxo-1-(piperidin-1-yl)propan-2-yl)-6-(H-pyrazol-1-yl)thieno[2,3-d]pyrimidine-2,4(1H,3H)-dione] the IC50 [1] was 10 to 40 nM, the MIC [2] was > 4.1 µg/mL and the MIC [3] was 2.1 to 4 µg/mL (≈ 3.54 to 6.74 µM). For the same compound, the MIC [4] was > 4.1 µg/mL, the IC90 ([5]; Table 4a) was 0.4 µg/mL (≈ 0.674 µM) and the IC90 ([5]; Table 4b) was 0.4 µg/mL (≈ 0.674 µM). The IC90 ([6]; Table 4a) was 10 µg/mL (≈ 16.8 µM), the IC90 ([6]; Table 4b) was 2 µg/mL (≈ 3.37 µM) and the IC90 ([7]; Table 4a) was 2 µg/mL (≈ 3.37 µM). The IC90 ([7]; Table 4b) was 2 µg/mL (≈ 3.37 µM), the IC90 [8] was 0.08 µg/mL (≈ 0.135 µM) and the “Concentration at 90% Inhibition Fm” value [8] was “AA (“AA” provided a compound concentration of 0.08 ppm at 90% inhibition of fungal pathogens)”. The IC90 [9, 13] was 0.4 µg/mL (≈ 0.674 µM), the IC90 [9, 14] was 0.4 µg/mL (≈ 0.674 µM) and the IC90 ([10]; Table 4a) was > 50 µg/mL. For the same compound, the IC90 ([10]; Table 4b) was > 50 µg/mL, the IC90 ([11]; Table 4a) was 2 µg/mL (≈ 3.37 µM) and the IC90 ([11]; Table 4b) was 2 µg/mL (≈ 3.37 µM). For the same compound, the IC90 ([12]; Table 4a) was > 50 µg/mL and the IC90 ([12]; Table 4b) was > 50 µg/mL.
`COc1ccccc1[C@H](Cn1c(=O)n(C(C)(C)C(=O)NC(C)C)c(=O)c2c(C)c(-n3cccn3)sc21)OCC(C)C` [Compound I-21, (R)-2-(1-(2-isobutoxy-2-(2-methoxyphenyl)ethyl)-5-methyl-2,4-dioxo-6-(1H-pyrazol-1-yl)-1,4-dihydrothieno[2,3-d]pyrimidin-3(2H)-yl)-N-isopropyl-2-methylpropanamide] was tested, and the IC50 [1] was 10 to 40 nM, the MIC [2] was 0.25 to 1 µg/mL (≈ 0.43 to 1.72 µM) and the MIC [3] was 0.25 to 1 µg/mL (≈ 0.43 to 1.72 µM). For the same compound, the MIC [4] was 0.25 to 1 µg/mL (≈ 0.43 to 1.72 µM), the IC90 ([5]; Table 4a) was 2 µg/mL (≈ 3.44 µM) and the IC90 ([5]; Table 4b) was 2 µg/mL (≈ 3.44 µM). For the same compound, the IC90 ([6]; Table 4a) was > 50 µg/mL, the IC90 ([6]; Table 4b) was 10 µg/mL (≈ 17.2 µM) and the IC90 ([7]; Table 4a) was 10 µg/mL (≈ 17.2 µM). The IC90 ([7]; Table 4b) was 2 µg/mL (≈ 3.44 µM), the IC90 [8] was 0.4 µg/mL (≈ 0.688 µM) and the “Concentration at 90% Inhibition Fm” value [8] was “A (“A” provided a compound concentration of 0.4 ppm at 90% inhibition of fungal pathogens)”. For the same compound, the IC90 [9, 13] was > 50 µg/mL, the IC90 [9, 14] was 10 µg/mL (≈ 17.2 µM) and the IC90 ([10]; Table 4a) was > 50 µg/mL. The IC90 ([10]; Table 4b) was > 50 µg/mL, the IC90 ([11]; Table 4a) was 2 µg/mL (≈ 3.44 µM) and the IC90 ([11]; Table 4b) was 2 µg/mL (≈ 3.44 µM). The IC90 ([12]; Table 4a) was > 50 µg/mL and the IC90 ([12]; Table 4b) was > 50 µg/mL.
